Targets include KRas G12D (Homo sapiens, UniProt P01116, G12D); KRas G12R (Homo sapiens, UniProt P01116, G12R); KRas G12V (Homo sapiens, UniProt P01116, G12V).
Common to all, as to experiment: biochemical

The record followed here is patent US12398154B2, “Azaquinazoline pan-KRas inhibitors” (Mirati Therapeutics, Inc., priority 2020, dated 2025).

KRas G12R, sequence (P01116 1-169 isoform P01116-2 G12R): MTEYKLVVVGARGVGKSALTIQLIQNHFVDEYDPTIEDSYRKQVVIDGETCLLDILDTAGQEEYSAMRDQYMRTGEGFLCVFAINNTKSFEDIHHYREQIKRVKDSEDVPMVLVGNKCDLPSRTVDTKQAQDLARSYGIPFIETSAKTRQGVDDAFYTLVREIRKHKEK
KRas G12D, sequence (P01116 1-169 isoform P01116-2 G12D): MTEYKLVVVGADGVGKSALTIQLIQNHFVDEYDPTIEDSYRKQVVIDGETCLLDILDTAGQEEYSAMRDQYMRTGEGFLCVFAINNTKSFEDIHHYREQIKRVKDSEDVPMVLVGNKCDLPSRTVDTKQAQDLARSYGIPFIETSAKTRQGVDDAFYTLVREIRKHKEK
KRas G12V, sequence (P01116 1-169 isoform P01116-2 G12V): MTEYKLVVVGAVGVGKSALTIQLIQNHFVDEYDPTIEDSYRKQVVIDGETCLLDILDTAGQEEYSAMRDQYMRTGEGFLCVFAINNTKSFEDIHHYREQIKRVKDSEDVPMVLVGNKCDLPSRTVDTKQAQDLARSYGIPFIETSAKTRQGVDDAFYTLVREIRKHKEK

As usually defined, the IC50 is the point on the concentration scale where inhibition reaches its midpoint. The low end stands for inhibition by little substance, the high end for a need for much substance. On to `CC1(O)CCCN(c2nc(OCC34CCCN3CCC4)nc3c(F)c(-c4cccc5cccc(Cl)c45)ncc23)C1` (centres unmarked) [Example 1, 1-(7-(8-chloronaphthalen-1-yl)-8-fluoro-2-((hexahydro-1H-pyrrolizin-7a-yl)methoxy)pyrido[4,3-d]pyrimidin-4-yl)-3-methylpiperidin-3-ol], for which the IC50 against KRas G12D was found to be 0.33 µM; against KRas G12R, 0.866 µM; on KRas G12V, 0.565 µM.

For the compound `O=C1CC2(CCCN(c3nc(OCC45CCCN4CCC5)nc4c(F)c(-c5cccc6cccc(Cl)c56)ncc34)C2)CN1` (centres unmarked) [Example 2, 7-(7-(8-chloronaphthalen-1-yl)-8-fluoro-2-((tetrahydro-1H-pyrrolizin-7a(5H)-yl)methoxy)pyrido[4,3-d]pyrimidin-4-yl)-2,7-diazaspiro[4.5]decan-3-one], the results for the IC50 on KRas G12D, against KRas G12R and at KRas G12V were 0.632 µM, 2.18 µM and 1.01 µM, respectively.

Take `O=C1CCN(c2nc(OCC34CCCN3CCC4)nc3c(F)c(-c4cccc5cccc(F)c45)ncc23)CCCN1` [Example 3, 5-(8-fluoro-7-(8-fluoronaphthalen-1-yl)-2-((hexahydro-1H-pyrrolizin-7a-yl)methoxy)pyrido[4,3-d]pyrimidin-4-yl)-1,5-diazocan-2-one]: the IC50 at KRas G12D was 8.18 µM; against KRas G12R it was 20.4 µM; on KRas G12V, 11.7 µM.

With `OC1CCCN(c2nc(OCC34CCCN3CCC4)nc3c(F)c(-c4cccc5cccc(F)c45)ncc23)CC1` (centres unmarked) [Example 8, 1-(8-fluoro-7-(8-fluoronaphthalen-1-yl)-2-((hexahydro-1H-pyrrolizin-7a-yl)methoxy)pyrido[4,3-d]pyrimidin-4-yl)azepan-4-ol], the IC50 against KRas G12D turned out to be 2.24 µM; against KRas G12R, 5.41 µM; on KRas G12V, 2.63 µM.

Turning to `CCc1c(F)ccc2cc(O)cc(-c3ncc4c(N5CCC[C@](C)(O)C5)nc(OC[C@@H]5C[C@@H](OC(=O)NC)CN5C)nc4c3F)c12` [Example 9, [(3R,5S)-5-[[7-(8-ethyl-7-fluoro-3-hydroxy-1-naphthyl)-8-fluoro-4-[(3S)-3-hydroxy-3-methyl-1-piperidyl]pyrido[4,3-d]pyrimidin-2-yl]oxymethyl]-1-methyl-pyrrolidin-3-yl] N-methylcarbamate], the figures for the IC50 on KRas G12D, against KRas G12R and against KRas G12V were 0.456 µM, 0.354 µM and 0.333 µM, respectively.

For the compound `OC1CCN(c2nc(OCC34CCCN3CCC4)nc3c(F)c(-c4cccc5cccc(F)c45)ncc23)CC1` [Example 11, 1-(8-fluoro-7-(8-fluoronaphthalen-1-yl)-2-((hexahydro-1H-pyrrolizin-7a-yl)methoxy)pyrido[4,3-d]pyrimidin-4-yl)piperidin-4-ol], the values for the half-maximal inhibitory concentration (IC50) at KRas G12D, on KRas G12R and against KRas G12V were 15.5 µM, 40.1 µM and 20.8 µM, respectively.

With `CC1(CNc2nc(OCC34CCCN3CCC4)nc3c(F)c(-c4cccc5cccc(F)c45)ncc23)CCC1` [Example 19, 8-fluoro-7-(8-fluoronaphthalen-1-yl)-2-((hexahydro-1H-pyrrolizin-7a-yl)methoxy)-N-((1-methylcyclobutyl)methyl)pyrido[4,3-d]pyrimidin-4-amine], the concentration for half-maximal inhibition (IC50) was at least 100 µM on KRas G12D, 84.3 µM against KRas G12R and 64.5 µM on KRas G12V.

Take `Fc1c(-c2cccc3cccc(F)c23)ncc2c(N3CCCC4CC43)nc(OCC34CCCN3CCC4)nc12` (centres unmarked) [Example 31, 4-(2-azabicyclo[4.1.0]heptan-2-yl)-8-fluoro-7-(8-fluoronaphthalen-1-yl)-2-((hexahydro-1H-pyrrolizin-7a-yl)methoxy)pyrido[4,3-d]pyrimidine]: the values for the IC50 on KRas G12R and against KRas G12V were 12.8 µM and 13.2 µM, respectively.

As for `Fc1c(-c2cccc3cccc(F)c23)ncc2c(N3CCCC4CCCC43)nc(OCC34CCCN3CCC4)nc12` (centres unmarked) [Example 32, 8-fluoro-7-(8-fluoronaphthalen-1-yl)-2-((hexahydro-1H-pyrrolizin-7a-yl)methoxy)-4-(octahydro-1H-cyclopenta[b]pyridin-1-yl)pyrido[4,3-d]pyrimidine], the IC50 against KRas G12D is 98.6 µM; against KRas G12R, 86.3 µM; at KRas G12V it was at least 100 µM.

Turning to `C[C@H]1C[C@@H](O)CN(c2nc(OCC34CCCN3CCC4)nc3c(F)c(-c4cccc5cccc(F)c45)ncc23)C1` [Example 33, (3R,5S)-1-(8-fluoro-7-(8-fluoronaphthalen-1-yl)-2-((hexahydro-1H-pyrrolizin-7a-yl)methoxy)pyrido[4,3-d]pyrimidin-4-yl)-5-methylpiperidin-3-ol], the values for the IC50 against KRas G12D, against KRas G12R and against KRas G12V were 6.37 µM, 10 µM and 6.61 µM, respectively.

As for `Cc1cc2sc(N)nc2c(-c2ncc3c(N4CCCC(C)(O)C4)nc(OC[C@@]45CCCN4C[C@H](F)C5)nc3c2F)c1C` (stereo partly drawn) [Example 39, 1-(7-(2-amino-5,6-dimethylbenzo[d]thiazol-4-yl)-8-fluoro-2-(((2R,7aS)-2-fluorotetrahydro-1H-pyrrolizin-7a(5H)-yl)methoxy)pyrido[4,3-d]pyrimidin-4-yl)-3-methylpiperidin-3-ol], the IC50 on KRas G12D worked out at 12.5 µM; on KRas G12R, 19.8 µM; against KRas G12V it was 25.5 µM.

On to `Cc1cc2sc(N)nc2c(-c2ncc3c(N4CCCC(C)(O)C4)nc(OCC45CCCN4CCC5)nc3c2F)c1C` (centres unmarked) [Example 40, 1-(7-(2-amino-5,6-dimethylbenzo[d]thiazol-4-yl)-8-fluoro-2-((hexahydro-1H-pyrrolizin-7a-yl)methoxy)pyrido[4,3-d]pyrimidin-4-yl)-3-methylpiperidin-3-ol], for which the IC50 amounted to 55 µM on KRas G12D, 76.9 µM on KRas G12R and 66.3 µM against KRas G12V.

As for `Fc1c(-c2cccc3cccc(F)c23)ncc2c(N3CCCCCCC3)nc(OCC34CCCN3CCC4)nc12` [Example 41, 4-(azocan-1-yl)-8-fluoro-7-(8-fluoronaphthalen-1-yl)-2-((hexahydro-1H-pyrrolizin-7a-yl)methoxy)pyrido[4,3-d]pyrimidine], the half-inhibitory concentration (IC50) was found to be 6.48 µM against KRas G12D, 6.39 µM against KRas G12R and 3.41 µM at KRas G12V.

Regarding `Fc1c(-c2cccc3cccc(F)c23)ncc2c(N3CCCOCC3)nc(OCC34CCCN3CCC4)nc12` [Example 42, 4-(8-fluoro-7-(8-fluoronaphthalen-1-yl)-2-((hexahydro-1H-pyrrolizin-7a-yl)methoxy)pyrido[4,3-d]pyrimidin-4-yl)-1,4-oxazepane], the values for the IC50 against KRas G12D, against KRas G12R and at KRas G12V were 1.86 µM, 3.09 µM and 1.61 µM, respectively.

Regarding `Fc1c(-c2cccc3cccc(F)c23)ncc2c(N3CCCSCC3)nc(OCC34CCCN3CCC4)nc12` [Example 43, 4-(8-fluoro-7-(8-fluoronaphthalen-1-yl)-2-((hexahydro-1H-pyrrolizin-7a-yl)methoxy)pyrido[4,3-d]pyrimidin-4-yl)-1,4-thiazepane], the figures for the IC50 against KRas G12D, at KRas G12R and against KRas G12V were 3.78 µM, 2.27 µM and 1.3 µM, respectively.

As to `OC1CCCCN(c2nc(OCC34CCCN3CCC4)nc3c(F)c(-c4cccc5cccc(F)c45)ncc23)C1` (centres unmarked) [Example 44, 1-(8-fluoro-7-(8-fluoronaphthalen-1-yl)-2-((hexahydro-1H-pyrrolizin-7a-yl)methoxy)pyrido[4,3-d]pyrimidin-4-yl)azepan-3-ol], the half-inhibitory concentration (IC50) was 3.23 µM against KRas G12D, 6.24 µM at KRas G12R and 2.99 µM at KRas G12V.
